One data set has as its system piniBAC reporter strain. Format: cell-based, Mycobacterium tuberculosis. The following applies: upregulation of iniBAC promoter.
A further data set has as its system wild-type MTb H37Rv. Nature of the data set: CFU after 7 days of treatment, wild-type. Type of data set: cell-based, Mycobacterium tuberculosis. The following applies: treatment at MIC concentrations. The method, then: Figure 4 Mtb lacking the alternative type II NADH dehydrogenase encoded by ndhA was more susceptible to compound 1. Colony-forming units (CFU) after 7 days of treatment as compared to CFU at start of drug treatment (inoculum). Unpaired t test comparison between WT and ΔndhA at 0.5 μM compound 1: two-tailed P-value = 0.0023.

The nature of the next data set: physchem. Type of data set: physicochemical. The following applies: water, kinetic from dmso stock, Kinetic solubility. The protocol:
The aqueous solubility of the test compounds was measured using laser nephelometry. Compounds were subject to serial dilution from 10 to 0.5 mM in DMSO. An aliquot was then mixed with Milli-Q water to obtain an aqueous dilution plate with a final concentration range of 250–12 μM, with a final DMSO concentration of 2.5%. Triplicate aliquots were transferred to a flat bottomed polystyrene plate which was immediately read on the NEPHELOstar (BMG Lab Technologies). The amount of laser scatter caused by insoluble particulates (relative nephelometry units, RNU) was plotted against compound concentration using a segmental regression fit, with the point of inflection being quoted as the compounds aqueous solubility (μM).

The format of data set [1] is in vitro ADME. The conditions noted are these: mouse, plasma. The protocol:
In brief, a 96-well equilibrium dialysis apparatus was used to determine the free fraction in plasma for each compound (HT Dialysis LLC, Gales Ferry, CT). Membranes (12–14 kDaA cutoff) were conditioned in deionized water for 60 min, followed by conditioning in 80:20 deionized water/ethanol overnight and then rinsed in water and isotonic buffer before use. Mouse plasma from appropriate species was removed from the freezer and allowed to thaw on the day of experiment. Thawed plasma was then centrifuged (Allegra X12-R, Beckman Coulter, USA) and spiked with test compound (final concentration 10 μg/mL), and 150 μL aliquots (n = 3 replicate determinations) were loaded into the 96-well equilibrium dialysis plate. Dialysis against isotonic buffer (150 μL) was carried out for 5 h in a temperature controlled incubator at ca. 37 °C (Barworld scientific Ltd., UK) using an orbital microplate shaker at 100 rpm (Barworld scientific Ltd., UK). At the end of the incubation period, 50 μL aliquots of plasma or buffer were transferred into a 96-well deep plate and the composition in each well was balanced with control fluid (50 μL), such that the volume of buffer to plasma is the same. Sample extraction was performed by the addition of 200 μL of acetonitrile containing an appropriate internal standard. Samples were allowed to mix for 1 min and then centrifuged at 3000 rpm in 96-well blocks for 15 min (Allegra X12-R, Beckman Coulter, USA) after which 150 μL of supernatant was removed to 50 μL of water. All samples were analyzed by UPLC-MS/MS on a Quattro Premier XE Mass Spectrometer (Waters Corporation, USA). The unbound fraction was determined as the ratio of the peak area in buffer to that in plasma.

The results in this text go back to PMC5996347, “2-Mercapto-Quinazolinones as Inhibitors of Type II NADH Dehydrogenase and Mycobacterium tuberculosis: Structure–Activity Relationships, Mechanism of Action and Absorption, Distribution, Metabolism, and Excretion Characterization” (ACS Infectious Diseases, 2018).

≈ marks a conversion by molar mass, not a printed value.

A word on the kinetic solubility: it is the concentration staying in solution when a stock, usually in DMSO, is diluted into the medium. Take `O=C(CSc1nc2ccccc2c(=O)[nH]1)NC1CCCCC1` [Compound 1, N-Cyclohexyl-2-((4-oxo-3,4-dihydroquinazolin-2-yl)thio)acetamide]: the pini-LUC reporter result with piniBAC reporter strain was “Not likely cell wall inhibitor”. In the data set with wild-type MTb H37Rv, the “Growth of wild-type MTb H37Rv over 7 days” value is “could not fully suppress growth”. In “physchem”, this compound displayed a kinetic solubility of 83 µM (≈ 26.3 µg/mL). For the same compound, in data set [1], the “PPB (% unbound)” value is given as 14 % unbound.
